In US8263601B2, “Deuterium substituted xanthine derivatives” (CoNCERT Pharmaceuticals, Inc., priority 2009, dated 2012):
Where two headings read alike, the source gives them in different places.

Columns and labels:
[1] = Pharmacokinetic study of pentoxifylline and Compound 435(S) in chimps after oral dosing (Example 39); assay type: in vivo; details: for % Difference in AUC0-12 Female (deuterated vs nondeuterated species) / % Difference in AUC0-12 Male (deuterated vs nondeuterated species): oral
Protocol: Pentoxifylline and Compound 435(S) were tested according to a protocol similar to the Oral Dosing protocol followed in Example 38, except that (a) the compounds were separately dissolved in water rather than saline; (b) the mixture of the two compounds was not sterile filtered; and (c) oral administration was achieved by oral gavage of a single 65 mg dose of each compound (13 mL total dosing solution).

[2] = Pharmacokinetic study of pentoxifylline and Compound 435(S) in chimps after oral dosing (Example 38); assay type: in vivo; details: for % Difference in AUC0-∞ Female (deuterated vs nondeuterated species) / % Difference in AUC0-∞ Male (deuterated vs nondeuterated species): oral; for AUC(0-inf): oral gavage 75 mg each of pentoxifylline and 435(S) as 1:1 mixture, species named in label measured in plasma
Protocol: (§1) Pentoxifylline and Compound 435(S) were separately dissolved in warm (65° C.) saline at a concentration at 10 mg/mL. A 1:1 mixture of the two compounds was then prepared containing a final concentration of 5 mg/mL of each compound and the mixture was then sterile filtered through a 0.2-μm filter.
(§2) Two chimps (one male and one female) were used in each of the oral and intravenous studies. Animals were fasted overnight prior to administration of compounds. All animals were sedated with ketamine (approximately 10 mg/kg) and/or telazol (approximately 5 mg/kg) prior to dosing. Intravenous administration was achieved by IV infusion of 75 mg of each compound (15 mL total dosing solution) over 10 minutes. Oral administration was achieved by oral gavage of a single 75 mg dose of each compound (15 mL total dosing solution). Blood samples (6 mL) were collected from the dosed chimps at various times prior to and after dosing. For intravenous administrations blood samples were collected at 0 min (preinfusion), 5 min, 9.5 min (immediately before the end of the infusion), then 6, 15, 30 and 45 min, and 1, 2, 4, 6, 8, 10 and 12 hr after the infusion is stopped. For oral administrations, blood samples were collected at 0 min (predose), 15 and 30 min, and 1, 1.5, 2, 4, 6, 8, 10 and 12 hr postdose.
(§3) Blood samples were placed in tubes containing sodium heparin, mixed and stored on ice until centrifuged. Within 30 minutes of collection, plasma was isolated by centrifuging the blood samples and removing an aliquot (200 μL) of the resulting plasma. Each 200-μL aliquot of plasma was mixed with 400 μL acetonitrile and stored at −70° C. until further analysis by LC-MS/MS using an Applied Bio-systems API 4000 mass spectrometer.
(§4) The analysis of all samples by LC-MS/MS was performed as described above for the rat plasma samples in Example 37.

[3] = Pharmacokinetic study in rats of (S)-M1 and Compound 435(S) after intravenous dosing (Example 37); assay type: in vivo, male Sprague-Dawley rats; details: for AUC(0-inf): male, Sprague-Dawley, rat
Protocol: (§5) (S)-M1 and Compound 435(S) (a deuterated form of (S)-M1) were separately dissolved in saline at a concentration of 10 mg/mL. A 1:1 mixture of the two compounds was then prepared containing a final concentration of 5 mg/mL of each compound, which was used for intravenous administration. For oral administration the mixture was further diluted in saline to a final concentration of 1 mg/mL for each compound.
(§6) Three male Sprague-Dawley rats were used in each of the oral and intravenous studies. Animals were fasted overnight prior to administration of compounds. Intravenous administration was achieved by bolus injection of a single 5 mg/kg dose of the 1:1 combination into the cannulated jugular vein of the rats. Cannulation was achieved the day prior to dosing on rats that had been placed under anesthesia using ketamine (IM 30 mg/kg). Oral administration was achieved by oral gavage of a single 5 mg/kg dose. Blood samples (250 μL) were collected from the dosed rats at various times post-dosing (2 min, 5 min, 10 min, 20 min, 30 min, 1 hr, 2 hr, 3 hr, 4 hr, 5 hr, 6 hr) by retro-orbital sampling of the rats temporarily anesthetized with isoflurane. Blood samples were placed in tubes containing K2-EDTA and stored on ice until centrifuged. Within 30 minutes of collection, plasma was isolated by centrifugation. A 100-μL aliquot was removed, mixed with 200 μL of acetonitrile and stored at −20° C. until further analysis by LC-MS/MS using an Applied Bio-systems API 4000 mass spectrometer.
(§7) Samples were analyzed for the presence of the administered compound, the corresponding ketone (pentoxifylline and Compound 409) and the corresponding M5 metabolite. Samples (10 μL) were injected into a Zorbax SB-C8 (Rapid Resolution) column (2.1×30 mm, 3.5 μm). The initial mobile phase condition was 100% A (10 mM ammonium acetate in water) and 0% B (methanol) with a flow rate at 0.5 mL/min. Mobile phase B was allowed to reach 55% in 3 minutes and from 55% to 90% in 1 minute before ramping back to 0% in another minute. The overall run time was 5 minutes. For pentoxifylline and its M1 and M5 metabolites, the precursor/product ion pairs were set at m/z 281/193 (M1), m/z 279/181 (pentoxifylline), and m/z 267/221 (M5).
(§8) For Compound 435(S) and Compound 409 more than one ion pair was set up for to detect species that arose from loss of deuterium. […] This loss of deuterium appears to occur both in vivo and ex vivo by an unknown mechanism. The addition of acetonitrile to serum samples was used to stop any additional ex vivo deuterium loss prior to analysis. Typically, no more than 2 deuterium atoms were replaced by hydrogen. For Compound 435(S), there is a deuterium at the methinyl position which was lost upon oxidation to the keto-compound 409. Reduction of 409 to an M1 metabolite introduced a proton at the methinyl position. When serum from animals dosed with 435(S) were analyzed to quantitate administered compound and metabolites, compound species were included with one and two less side chain deuteriums in the total amounts (referred to hereinafter as the “−1D” and the “−2D” species). Thus, for Compound 435(S) and Compound 409 separate ion pairs were set up to detect the compound and its corresponding −1D and −2D species. For Compound 435(S) three ion pairs were detected: m/z 291/197, 290/197, and […]. For Compound 409 ion pairs of m/z 288/186, 287/186 and 286/186 were monitored. Inclusion of −1D and −2D species in the measurements of Compound 409 and Compound 435(S) more accurately quantitates the total active species and is reasonable based on what is known about the metabolism and activities of pentoxifylline and its M-1 metabolites. Increased plasma exposure to Compound 409 or any M-1 metabolites of 409 would be desirable. This includes the −1D and −2D species.
(§9) [drawing 78] which has no deuterium on its acid side chain, only one ion pair was used at m/z 271/225. The internal standard for the analysis was indiplon.

[4] = Pharmacokinetic study in rats of (S)-M1 and Compound 435(S) after oral dosing (Example 37); assay type: in vivo, male Sprague-Dawley rats
Protocol: as §5, §6, §7, §8, §9

[5] = Pharmacokinetic study of pentoxifylline and Compound 435(S) in chimps after intravenous dosing (Example 38); assay type: in vivo; details: for AUC(0-inf): IV infusion 75 mg each of pentoxifylline and 435(S) over 10 minutes, species named in label measured in plasma; for % Difference in AUC0-∞ Female (deuterated vs nondeuterated species) / % Difference in AUC0-∞ Male (deuterated vs nondeuterated species): intravenous
Protocol: as §1, §2, §3, §4

[6] = intravenous bolus single 5 mg/kg dose of 1:1 combination of (S)-M1 and 435(S), species named in label measured in plasma
[7] = female chimp, oral gavage 65 mg each of pentoxifylline and 435(S) in water, species named in label measured in plasma, read-out: AUC0-12 Female
[8] = male chimp, oral gavage 65 mg each of pentoxifylline and 435(S) in water, species named in label measured in plasma, read-out: AUC0-12 Male
[9] = female chimp, read-out: AUC0-∞ Female
[10] = male chimp, read-out: AUC0-∞ Male
[11] = male, Sprague-Dawley, rat, oral gavage single 5 mg/kg dose, 1:1 mixture of (S)-M1 and 435(S), species named in label measured in plasma, −1D and −2D species included

Row | Structure (SMILES) | % Difference in AUC0-12 Female (deuterated vs nondeuterated species) ([1]; female chimp) | AUC(0-t) [1, 7] | % Difference in AUC0-12 Male (deuterated vs nondeuterated species) ([1]; male chimp) | AUC(0-t) [1, 8] | AUC(0-inf) [5, 9] | % Difference in AUC0-∞ Female (deuterated vs nondeuterated species) ([5]; female chimp) | AUC(0-inf) [5, 10] | % Difference in AUC0-∞ Male (deuterated vs nondeuterated species) ([5]; male chimp) | % Difference in AUC0-∞ Female (deuterated vs nondeuterated species) ([2]; female chimp) | AUC(0-inf) [2, 9] | % Difference in AUC0-∞ Male (deuterated vs nondeuterated species) ([2]; male chimp) | AUC(0-inf) [2, 10] | AUC(0-inf) [3, 6] | AUC(0-inf) [4, 11] | % Difference in AUC0-∞ (deuterated vs nondeuterated species) ([4]; oral) | also measured
1 | C[C@H](O)CCCCn1c(=O)c2c(ncn2C)n(C)c1=O [(S)-M1, reference compound] | – | – | – | – | – | – | – | – | – | – | – | – | – | – | – | AUC0-12 Female ([1]; female chimp, oral gavage 65 mg each of pentoxifylline and 435(S) in water, species named in label measured in plasma): 88 ng·h/mL; AUC0-12 Male ([1]; male chimp, oral gavage 65 mg each of pentoxifylline and 435(S) in water, species named in label measured in plasma): 75 ng·h/mL; AUC0-∞ Female ([2]; in vivo, po, 75 mg): 301 ng·h/mL; AUC0-∞ Male ([2]; in vivo, po, 75 mg): 300 ng·h/mL; Ratio of active species to the corresponding M5 metabolite ([3]; intravenous administration): 3.5; AUC0-∞ [3, 6]: 3390 ± 302 ng·h/mL; Ratio of active species (M1 alcohol + ketone) to M5 metabolite ([4]; oral administration, from AUC0-∞): 1.6; Cmax ([4]; oral gavage single 5 mg/kg dose, 1:1 mixture of (S)-M1 and 435(S), species named in label measured in plasma): 1570 ± 249 ng/mL; AUC0-∞ ([4]; oral gavage single 5 mg/kg dose, 1:1 mixture of (S)-M1 and 435(S), species named in label measured in plasma, −1D and −2D species included): 1628 ± 272 ng·h/mL
2 | [2H]c1nc2c(c(=O)n(CCCC([2H])([2H])[C@@]([2H])(O)C([2H])([2H])[2H])c(=O)n2C)n1C([2H])([2H])[2H] [Compound 435(S), (S)-8-d1-1-(4,4,5,6,6,6-d6-5-Hydroxyhexyl)-3-methyl-7-(methyl-d3)-1H-purine-2,6(3H,7H)-dione] | +108% | 183 ng·h/mL | +185% | 214 ng·h/mL | 1210 ng·h/mL | +84% | 2520 ng·h/mL | +61% | +123% | 672 ng·h/mL | +176% | 829 ng·h/mL | 7130 ± 816 ng·h/mL | 4510 ± 1020 ng·h/mL | +177% | Cmax ([4]; male, Sprague-Dawley, rat, oral gavage single 5 mg/kg dose, 1:1 mixture of (S)-M1 and 435(S), species named in label measured in plasma, read-out: Cmax): 4100 ± 964 ng/mL; % Difference in Cmax (deuterated vs nondeuterated species) ([4]; oral): +162%
3 | [2H]c1nc2c(c(=O)n(CCCC(=O)O)c(=O)n2C)n1C([2H])([2H])[2H] [Deuterated M5 (M5a)] | −25% | 609 ng·h/mL | −18% | 667 ng·h/mL | 632 ng·h/mL | −60% | 428 ng·h/mL | −65% | −68% | 606 ng·h/mL | −68% | 462 ng·h/mL | 1520 ± 530 ng·h/mL | 1920 ± 183 ng·h/mL | −36% | % Difference in AUC0-∞ (deuterated vs nondeuterated species) ([3]; intravenous): −15%; Amount of M5a metabolite less than amount of M5 metabolite ([3]; intravenous administration of Compound 435(S) vs (S)-M1): 15%
